Experimental data from US10391166B2, “Short oligonucleotides as vaccine adjuvants and therapeutic agents” (priority 2013, dated 2019).
Entries after “also recorded” stand apart in the source; their conditions may differ.

Key:
MHC-II = type: cell-based, mouse
[1] = Dose range-finding oral toxicity study in rats (single dose and 7 days); type: in vivo, Sprague-Dawley rats
Source text: The objective of this study was to determine potential toxic effects, to identify potential target organs of toxicity, and to determine a maximum tolerated dose (MTD) and a no observable adverse effect level (NOAEL) for the endpoints examined following daily oral gavage of SB 44 for 7 consecutive days to adult male and female Sprague-Dawley rats. Information from this study was used to design subsequent toxicity studies and determine the suitability of the proposed human dose. This study consisted of Phase A and Phase B. Phase A was a dose range-finding study. Two rats (1 male and 1 female) were included in the study. Animals were given a single dose of SB 44 at 1000 mg/kg by oral gavage (po) and observed for 3 days. […] No necropsy was performed.
In Phase B, rats (3/sex/group) were given a daily oral dose of SB 44 at 50, 250, and 1000 mg/kg/day for 7 consecutive days. A control group (3/sex) was also given a daily oral dose of the vehicle, 50% PEG 400 plus 50% HPMCT (0.1% hydroxypropyl methylcellulose and 0.2% Tween 80 in sterile water), at an equivalent volume for 7 days. Animals were sacrificed on Day 8. The following parameters were evaluated: mortality/morbidity, clinical observations, body weights, clinical pathology (hematology and serum chemistry), organ weights, and, at necropsy, macroscopic observations and microscopic histopathology for liver tissues.

[2] = tested on: Madin-Darby bovine kidney (MDBK); experiment: MTT cytotoxicity assay, MDBK cells; type: cell-based; conditions: 24-hour incubation
Source text: SDS was used as a positive cytotoxic control.

RIG-I = molecular target: T1, RIG-I (Homo sapiens, UniProt O95786); experiment: IRF3-luciferase assay in HEK 293 cells transfected with RIGI; type: cell-based; conditions: 100 or 500 nM; 8 h or 16 h incubation
T1 construct: expressed in transfected cells; host or cells: HEK 293
T1 sequence (O95786 1-925): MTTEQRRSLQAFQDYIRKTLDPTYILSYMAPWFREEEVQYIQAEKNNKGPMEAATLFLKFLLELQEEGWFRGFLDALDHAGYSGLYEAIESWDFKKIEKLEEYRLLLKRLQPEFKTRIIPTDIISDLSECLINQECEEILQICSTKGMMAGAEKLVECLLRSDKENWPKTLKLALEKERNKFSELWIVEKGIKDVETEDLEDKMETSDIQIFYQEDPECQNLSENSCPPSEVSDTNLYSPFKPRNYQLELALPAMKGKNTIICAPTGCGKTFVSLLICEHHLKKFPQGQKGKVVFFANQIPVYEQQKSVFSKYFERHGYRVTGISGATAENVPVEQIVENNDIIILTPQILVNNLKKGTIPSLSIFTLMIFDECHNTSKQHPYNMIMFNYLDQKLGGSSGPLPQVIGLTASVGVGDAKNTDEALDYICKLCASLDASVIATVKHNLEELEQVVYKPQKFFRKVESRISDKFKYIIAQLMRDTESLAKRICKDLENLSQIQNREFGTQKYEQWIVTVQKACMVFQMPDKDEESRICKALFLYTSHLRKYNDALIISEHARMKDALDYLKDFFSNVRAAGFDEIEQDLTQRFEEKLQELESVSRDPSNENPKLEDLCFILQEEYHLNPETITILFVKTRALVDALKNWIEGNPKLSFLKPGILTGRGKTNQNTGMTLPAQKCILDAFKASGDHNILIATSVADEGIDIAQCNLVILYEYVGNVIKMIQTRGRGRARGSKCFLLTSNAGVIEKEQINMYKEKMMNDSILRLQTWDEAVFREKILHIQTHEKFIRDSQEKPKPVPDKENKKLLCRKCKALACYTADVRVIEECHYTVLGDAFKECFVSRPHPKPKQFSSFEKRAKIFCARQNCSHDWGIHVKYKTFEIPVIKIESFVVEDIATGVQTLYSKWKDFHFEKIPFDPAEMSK
Procedure: HEK 293 cells were transfected with RIGI, pcDNA and IRF3-luciferase. The cells were then incubated with SB 44 (100 or 500 nM). Following 8 h or 16 h incubation, Luciferase activity was measured as described previously. The Luciferase assay results are presented as mean±S.D. from three independent experiments.

bacterial tester strains = experiment: Bacterial mutation test (screening version, pre-incubation); conditions: up to 5000 μg/plate
Procedure: Study design: The test was performed on one occasion only. A subset of the standard tester strains (list strains) was used to evaluate the genotoxic potential of the test article.
The test article was formulated in dimethyl sulfoxide (DMSO) and tested at a maximum concentration of 5000 μg/plate (the standard limit dose for this assay) together with approximate half-log dilutions using the pre-incubation version of the bacterial mutation test. The absence of colonies on sterility check plates confirmed the absence of microbial contamination. The mean revertant colony counts for the vehicle controls were close to or within the laboratory historical control data. Appropriate positive control compounds (+/−S9 mix) induced increases in revertant colony numbers at least twice the concurrent vehicle control levels with the appropriate bacterial strain (1.5× for strain TA 100), confirming the sensitivity of the test system and activity of the S9 mix. […] No precipitation was observed.

[3] = Dose range-finding oral study in cynomolgus monkeys; type: in vivo; conditions: 500 mg/kg/day oral for 4 days
Procedure: The objective of this study was to determine a maximum tolerated dose (MTD) and a no observable adverse effect level (NOAEL) for the endpoints examined following daily oral gavage of SB 44 for 4 consecutive days to cynomolgus monkeys. Information from this study was used to design subsequent dose-ranging toxicity studies and determine the suitability of the proposed human dose.
SB 44 was administered orally to cynomolgus monkeys consecutively for 4 days at 500 mg/kg/day.

PBMCs = type: cell-based
[4] = tested on: C57Bl/6 mouse bone marrow derived macrophages; type: cell-based

SMILES: COC1C(OP(=O)(OCC2OC(n3cnc4c(N)ncnc43)CC2O)SCOC(=O)OC(C)C)C(CO)OC1n1ccc(=O)[nH]c1=O (mixture of isomers) [SB 44]
- surface expression of MHC-II (MHC-II): increase MHC-II in MΦs; also recorded: enhances surface expression of MHC-II
- NOAEL ([1]; daily oral administration for 7 consecutive days): at least 1000 mg/kg/day
- adverse effects ([1]; daily oral gavage 50, 250, 1000 mg/kg/day for 7 days): no overt biologically or toxicologically significant adverse effects
- clinical observation after single dose ([1]; single dose 1000 mg/kg po, observed 3 days): appeared normal
- CC50 [2]: > 1000 µM
- IRF3 induction following activation of RIG-I (RIG-I): IRF3 induction following activation of RIG-I
- toxicity to the bacteria (background lawn) (bacterial tester strains): non-toxic to the bacteria at the levels tested
- genotoxic activity (revertant colony counts) (bacterial tester strains; absence or presence of S9 mix): did not show any evidence of genotoxic activity
- elevation of ALT [3]: about 2 fold
- elevation of AST [3]: about 6 fold
- tolerability [3]: clinically well tolerated
- IFN production in the presence of BCG (PBMCs): modest augmentation of IFN production
- antigen presentation (Antigen-85B) in macrophages [4]: enhance antigen presentation in vitro
